Laboratory results as given in patent US10633397B2, “Substituted polycyclic pyridone derivatives and prodrugs thereof” (priority 2015, dated 2020).
≈ marks a conversion by molar mass, not a printed value. Like-named read-outs stand apart in the source and are kept apart here.

Assays:
physchem [1] = type: physicochemical; conditions: kinetic from dmso stock; 1% DMSO addition conditions; JP-1 or JP-2 solution not stated in result
Method: Test Example 9: Solubility Test
A 10 mmol/L solution of the compound was prepared with DMSO, and 2 μL of the solution of the compound of the present invention was added, respectively, to 198 μL of JP-1 solution (water were added to 2.0 g of sodium chloride and 7.0 mL of hydrochloric acid to reach 1000 mL) and JP-2 solution (1 volume of water were added to 1 volume of the solution which 3.40 g of potassium dihydrogen phosphate and 3.55 g of anhydrous disodium hydrogen phosphate to reach 1000 mL). The mixture was shaked for 1 hour at a room temperature, and the mixture was filtered. The filtrate was ten-fold diluted with methanol/water=1/1(v/v), and the compound concentration in the filtrate was measured with LC/MS or SPE/MS by the absolute calibration method.

physchem [2] = type: physicochemical; conditions: thermodynamic from solid, 1 hour at 37° C.
Method: Test Example 10: Powder Solubility Test
Appropriate amounts of the compound of the present invention was put into vials and 200 μL of JP-1st Fluid (water was added to 2.0 g of sodium chloride in 7.0 mL of hydrochloride acid to reach 1000 mL), JP-2nd Fluid (water was added to 500 mL of phosphate buffer solution with a pH of 6.8) and 20 mmol/L sodium taurocholate (TCA)/JP-2nd Fluid (JP-2nd Fluid was added to 1.08 g of TCA in JP-2nd Fluid to reach 100 mL) was added to each vial. When the compound was completely dissolved, appropriate amount of compound was added. After shaken for 1 hour at 37° C., the mixture was filtered and 100 μL of methanol was added to 100 μL of each filtrate (double dilution). Dilution magnification was changed if necessary. After it was confirmed whether there were air bubbles and precipitates in the vials, the vials were shaken with tight stopper. The compound concentration was determined with HPLC by the absolute calibration method.

CYP2C19 = target: T1, CYP2C19 (Homo sapiens, UniProt P33261); test: biochemical; type: in vitro ADME
T1 construct: Using commercially available pooled human hepatic microsome; from tissue
Source text: (§1) Test Example 3: CYP Inhibition Test
(§2) Using commercially available pooled human hepatic microsome, and employing, as markers, 7-ethoxyresorufin O-deethylation (CYP1A2), tolbutamide methyl-hydroxylation (CYP2C9), mephenytoin 4′-hydroxylation (CYP2C19), dextromethorphan O-demethylation (CYP2D6), and terfenedine hydroxylation (CYP3A4) as typical substrate metabolism reactions of human main five CYP enzyme forms (CYP1A2, 2C9, 2C19, 2D6, 3A4), an inhibitory degree of each metabolite production amount by a compound of the present invention was assessed.
(§3) The reaction conditions were as follows: substrate, 0.5 μmol/L ethoxyresorufin (CYP1A2), 100 μmol/L tolbutamide (CYP2C9), 50 μmol/L S-mephenytoinmephenitoin (CYP2C19), 5 μmol/L dextromethorphan (CYP2D6), 1 μmol/L terfenedine (CYP3A4); reaction time, 15 minutes; reaction temperature, 37° C.; enzyme, pooled human hepatic microsome 0.2 mg protein/mL; concentration of a compound of the present invention, 1, 5, 10, 20 μmol/L (four points).
(§4) Each five kinds of substrates, human hepatic microsome, or a compound of the present invention in 50 mmol/L Hepes buffer as a reaction solution was added to a 96-well plate at the composition as described above, NADPH, as a cofactor was added to initiate metabolism reactions as markers and, after the incubation at 37° C. for 15 minutes, a methanol/acetonitrile=1/1 (v/v) solution was added to stop the reaction. After the centrifugation at 3000 rpm for 15 minutes, resorufin (CYP1A2 metabolite) in the supernatant was quantified by a fluorescent multilabel counter and toltributamide hydroxide (CYP2C9P metabolite), mephenytoin 4′ hydroxide (CYP2C19 metabolite), […] (CYP2D6 metabolite), and terfenadine alcohol (CYP3A4 metabolite) were quantified by LC/MS/MS.

CYP1A2 = target: T2, CYP1A2 (Homo sapiens, UniProt P05177); test: biochemical; type: in vitro ADME
T2 construct: Using commercially available pooled human hepatic microsome; from tissue
T2 sequence (P05177 1-516): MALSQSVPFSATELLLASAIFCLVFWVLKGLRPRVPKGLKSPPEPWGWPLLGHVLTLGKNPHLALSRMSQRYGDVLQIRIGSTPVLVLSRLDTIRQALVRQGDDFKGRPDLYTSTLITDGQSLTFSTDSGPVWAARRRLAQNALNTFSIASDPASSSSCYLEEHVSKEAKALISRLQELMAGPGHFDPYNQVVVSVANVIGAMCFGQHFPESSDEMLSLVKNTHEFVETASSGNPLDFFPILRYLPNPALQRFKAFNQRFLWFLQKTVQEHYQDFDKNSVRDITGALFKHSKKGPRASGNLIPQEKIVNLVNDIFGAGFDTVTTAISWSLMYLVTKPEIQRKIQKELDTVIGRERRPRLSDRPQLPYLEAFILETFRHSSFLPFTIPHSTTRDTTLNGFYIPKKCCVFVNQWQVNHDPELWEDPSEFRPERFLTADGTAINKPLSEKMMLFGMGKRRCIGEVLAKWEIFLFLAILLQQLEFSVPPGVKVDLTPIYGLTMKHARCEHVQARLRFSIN
Source text: as §1, §2, §3, §4

CYP2D6 = target: T3, CYP2D6 (Homo sapiens, UniProt P10635); test: biochemical; type: in vitro ADME
T3 construct: Using commercially available pooled human hepatic microsome; from tissue
Source text: as §1, §2, §3, §4

CYP3A4 = target: T4, CYP3A4 (Homo sapiens, UniProt P08684); test: biochemical; type: in vitro ADME
T4 construct: Using commercially available pooled human hepatic microsome; from tissue
Source text: as §1, §2, §3, §4

CYP2C9 = target: T5, CYP2C9 (Homo sapiens, UniProt P11712); test: biochemical; type: in vitro ADME
T5 construct: Using commercially available pooled human hepatic microsome; from tissue
Source text: as §1, §2, §3, §4

T1 sequence (P33261 whole entry): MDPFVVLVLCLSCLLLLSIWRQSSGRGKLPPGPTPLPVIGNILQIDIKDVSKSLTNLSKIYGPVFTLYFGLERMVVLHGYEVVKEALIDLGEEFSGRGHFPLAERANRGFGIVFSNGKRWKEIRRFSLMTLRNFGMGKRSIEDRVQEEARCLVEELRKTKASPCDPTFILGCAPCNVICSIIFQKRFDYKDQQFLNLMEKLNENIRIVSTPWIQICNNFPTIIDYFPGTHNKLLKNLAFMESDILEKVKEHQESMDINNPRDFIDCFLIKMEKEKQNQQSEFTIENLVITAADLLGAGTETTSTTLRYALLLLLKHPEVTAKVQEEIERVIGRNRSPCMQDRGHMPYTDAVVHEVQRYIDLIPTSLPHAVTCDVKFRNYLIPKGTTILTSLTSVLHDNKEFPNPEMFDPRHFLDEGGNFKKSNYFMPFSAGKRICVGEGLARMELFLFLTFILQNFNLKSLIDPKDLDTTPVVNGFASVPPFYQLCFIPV
T3 sequence (P10635 whole entry): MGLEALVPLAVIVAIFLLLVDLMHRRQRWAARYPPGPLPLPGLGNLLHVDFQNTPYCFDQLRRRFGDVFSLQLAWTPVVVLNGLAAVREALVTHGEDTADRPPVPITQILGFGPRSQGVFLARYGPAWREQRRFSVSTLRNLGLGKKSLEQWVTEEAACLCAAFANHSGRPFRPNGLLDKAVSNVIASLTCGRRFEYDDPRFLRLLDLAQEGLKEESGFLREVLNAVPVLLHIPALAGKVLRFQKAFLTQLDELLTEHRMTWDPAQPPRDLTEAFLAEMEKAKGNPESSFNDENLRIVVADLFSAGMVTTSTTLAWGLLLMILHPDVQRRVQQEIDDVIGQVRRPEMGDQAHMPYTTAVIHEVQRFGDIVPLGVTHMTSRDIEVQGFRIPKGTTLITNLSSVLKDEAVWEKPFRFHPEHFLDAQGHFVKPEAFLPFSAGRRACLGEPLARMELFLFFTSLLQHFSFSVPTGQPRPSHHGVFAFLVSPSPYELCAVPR
T5 sequence (P11712 whole entry): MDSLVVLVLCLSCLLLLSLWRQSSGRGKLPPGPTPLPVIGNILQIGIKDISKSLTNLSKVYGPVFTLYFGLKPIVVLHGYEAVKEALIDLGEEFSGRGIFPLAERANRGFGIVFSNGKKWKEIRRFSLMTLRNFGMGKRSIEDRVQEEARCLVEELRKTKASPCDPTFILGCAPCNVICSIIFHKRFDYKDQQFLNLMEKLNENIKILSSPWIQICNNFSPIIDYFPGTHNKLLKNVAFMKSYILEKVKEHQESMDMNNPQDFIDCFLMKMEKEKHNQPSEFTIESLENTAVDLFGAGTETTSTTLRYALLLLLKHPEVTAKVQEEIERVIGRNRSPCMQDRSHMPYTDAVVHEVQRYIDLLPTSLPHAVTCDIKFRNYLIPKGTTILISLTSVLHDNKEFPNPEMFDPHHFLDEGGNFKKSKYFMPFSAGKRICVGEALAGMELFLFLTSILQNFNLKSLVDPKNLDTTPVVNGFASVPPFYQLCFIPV
T4 sequence (P08684 whole entry): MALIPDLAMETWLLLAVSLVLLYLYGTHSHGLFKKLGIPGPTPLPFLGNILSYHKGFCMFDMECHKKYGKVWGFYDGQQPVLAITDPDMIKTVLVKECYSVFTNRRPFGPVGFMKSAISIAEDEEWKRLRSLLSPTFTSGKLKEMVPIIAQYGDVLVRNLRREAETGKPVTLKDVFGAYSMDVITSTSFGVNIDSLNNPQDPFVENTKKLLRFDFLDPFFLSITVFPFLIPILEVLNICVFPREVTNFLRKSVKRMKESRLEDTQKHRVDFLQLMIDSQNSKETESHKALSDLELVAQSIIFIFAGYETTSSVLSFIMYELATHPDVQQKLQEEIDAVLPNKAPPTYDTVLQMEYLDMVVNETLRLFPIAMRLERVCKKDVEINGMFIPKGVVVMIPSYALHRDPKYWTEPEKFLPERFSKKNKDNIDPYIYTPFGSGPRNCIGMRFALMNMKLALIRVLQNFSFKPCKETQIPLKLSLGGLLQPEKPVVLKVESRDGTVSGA

O=C1c2c(O)c(=O)ccn2N([C@@H]2c3ccccc3SCc3c2ccc(F)c3F)[C@@H]2COCCN12 [III-2]
solubility (physchem [1]): 42.2 µM (≈ 20.4 µg/mL) | solubility (physchem [2]; pH 1.2, simulated gastric fluid, JP-1 solution, read-out: powder solubility, JP-1 solution): 7.1 µg/mL (≈ 14.7 µM) | solubility (physchem [2]; pH 6.8, aqueous buffer, JP-2 solution, read-out: powder solubility, JP-2 solution): 4.4 µg/mL (≈ 9.1 µM) | solubility (physchem [2]; pH 6.8, fassgf or other biorelevant, 20 mmol/L TCA/JP-2 solution): 16.1 µg/mL (≈ 33.3 µM) | IC50 (CYP2C19): > 20 µM | IC50 (CYP1A2): > 20 µM | IC50 (CYP2D6): > 20 µM | IC50 (CYP3A4): > 20 µM | IC50 (CYP2C9): > 20 µM
